# Data: patent US20030187048A1, “Method for inhibiting skin lesion formation using histamine as the active ingredient” (priority 1991, published 2003)
# Several values for one entry are separate records, joined by “and”; a condition that tells them apart may be missing. Identical values can stand only once. Like-named read-outs stand apart in the source and are kept apart here.
# Legend:
# [1] = system: pressure sores (decubitus ulcers); details: for Percent Reduction in Area from original Size / Mean Percent Reduction/Week: per patient; for Mean Percent Reduction/Week: lesion area from original size
# Description: Treatment included standardized decubitus ulcer care for all pressure sores as determined by the protocol for the study.
# Prospective subjects were considered for the study if their pressure sores (decubitus ulcers) were free from infection and either a Stage I or a Stage II lesion.
# Patients were randomly assigned to one of four active ingredient levels being evaluated. […] Assignment of subjects to the four gel concentrations was unknown to the investigator.
# The topical application of all gel concentrations to their respective, randomly assigned patients occurred once daily following careful rinsing of the pressure sore with sterile normal saline. After application of the appropriate gel concentration, each pressure sore was covered with a bio-occlusive dressing to minimize wound contamination.
# Clinical evaluation included weekly classification of the stage of the pressure sores, the size and depth of the sores, the color, signs of infection (if present), odor (if present), and patient cooperation with treatment.
# [2] = system: aphthous stomatitis lesions (canker sores); details: for Mean percentage decay rates of lesions for each patient: standardized over 24 hour period
# Protocol: Treatment consisted of topical application five times per day for a period of five days., with daily evaluation by the patient and clinician. Lesion decay rates (decrease in lesion size over time) of Groups C and E were grouped together and compared to Group B, the placebo Group.
# Assignment of subjects within groups to the three concentrations was unknown to the investigator.
# The decay rate was calculated by first computing the percentage decrease in size of the lesion over time and then standardizing the decay rate over an exact 24 hour period.
# [3] = system: herpes zoster (shingles) lesions; details: for Burning score / Local pain score: […] IEP gel, scale 0 to 5
# Protocol: The percent reduction in complete healing time as compared to a usual episode was evaluated comparing the two patients who received active gel concentrations to the two patients receiving placebo gel. […] Subjects were assigned randomly to one of two active ingredient levels being evaluated, 0.0% and 0.015% by weight of active ingredient.
# Each patient was contacted weekly for his or her estimate of the symptomatic relief of 2 common symptoms associated with herpes zoster (shingles) as well as the patient's interpretation of total healing of the episode. In an attempt to quantify responses, patients were asked to rate each symptom on a scale of 0 to 5 with 0 representing no evidence of the symptom and 5 representing the worst or most prominent evidence of the symptom ever for the patient. Subject compliance with the study regimen and the use of other medications was also assessed.
# [4] = system: Photodermatitis (second degree sunburn); details: for Avg blister/hr: from count at 65 hours; for Discomfort on Lotion or Gel Application / General Discomfort: scored 1 (none) to 5 (worst)
# Protocol: Treatment consisted of topical application of all lotion or gel concentrations to their respective, randomly assigned quadrants ever 30 minutes for the first 2 hours following the irradiation period, followed by lotion or gel or applications every hour for four hours, then lotion or gel applications three times a day until 65 hours elapsed post 2-z irradiation. Photographs were taken during the treatment period and upon the formation of identifiable blisters, the numbers of blisters in each quadrant were recorded at three times during-the treatment period with cessation of lotion or gel application and data collection at the 65 hours point as exfoliation (peeling) of the outer layers of the epidermis began at 70 hours.
# Subjective evaluation involved an estimate of pain/discomfort following lotion or gel application in each quadrant as well as a comparative general discomfort level for each quadrant during the treatment period. Pain/discomfort was scored from 1 (none) to 5 (worst).
# [5] = 0.0045% IEP, lower right quadrant
# [6] = 0.0067% IEP, upper left quadrant
smiles,measurement,setting,value
"NCCc1c[nH]cn1 [IEP, 1H-imidazole-4-ethanamine,phosphate]",Percent Reduction in Area from original Size,"[1]; 0.0045% IEP gel, end of treatment week 1",28.5% and 29.8%
same,Percent Reduction in Area from original Size,"[1]; 0.0045% IEP gel, end of week 2",33.6% and 66.6%
same,Percent Reduction in Area from original Size,"[1]; 0.0045% IEP gel, end of week 3",51.6% and 72.8%
same,Percent Reduction in Area from original Size,"[1]; 0.0045% IEP gel, end of week 4",71.7% and 84.9%
same,Percent Reduction in Area from original Size,"[1]; 0.0045% IEP gel, end of week 5",78.8% and 90.1%
same,Percent Reduction in Area from original Size,"[1]; 0.0045% IEP gel, end of week 6",87.0% and 95.6%
same,Percent Reduction in Area from original Size,"[1]; 0.0045% IEP gel, end of week 7",91.4% and 97.5%
same,Percent Reduction in Area from original Size,"[1]; 0.0045% IEP gel, end of week 8",92.3% and 99.4%
same,Percent Reduction in Area from original Size,"[1]; 0.0045% IEP gel, end of week 9",92.3% and 99.4%
same,Percent Reduction in Area from original Size,"[1]; 0.0045% IEP gel, end of week 10",99.4%
same,Mean Percent Reduction/Week,[1]; 0.0045% gel,10.3% and 12.1%
same,Percent Reduction in Area from original Size,"[1]; 0.0069% IEP gel, end of week 1",48.6% and 55.6%
same,Percent Reduction in Area from original Size,"[1]; 0.0069% IEP gel, end of week 2",77.1% and 60.0%
same,Percent Reduction in Area from original Size,"[1]; 0.0069% IEP gel, end of week 3",77.1% and 78.2%
same,Percent Reduction in Area from original Size,"[1]; 0.0069% IEP gel, end of week 4",100% and 81.3%
same,Percent Reduction in Area from original Size,"[1]; 0.0069% IEP gel, end of week 5",84.4%
same,Percent Reduction in Area from original Size,"[1]; 0.0069% IEP gel, end of week 6",88.9%
same,Percent Reduction in Area from original Size,"[1]; 0.0069% IEP gel, end of week 7",100%
same,Mean Percent Reduction/Week,[1]; 0.0069% gel,14.3% and 25.0%
same,Percent Reduction in Area from original Size,"[1]; 0.009% IEP gel, end of week 1",66.7% and 56.5%
same,Percent Reduction in Area from original Size,"[1]; 0.009% IEP gel, end of week 2",100.0% and 56.5%
same,Percent Reduction in Area from original Size,"[1]; 0.009% IEP gel, end of week 3",100.0%
same,Mean Percent Reduction/Week,[1]; 0.009% gel,50.0% and 40.0%
same,Reducing the size of pressure sores vs placebo gel,"[1]; 0.009% vs 0%, mean percent reduction in area per week, p<0.05",statistically significantly more effective
same,Untoward effects,[1]; in vivo,no untoward effects
same,"Mean percentage decay rate of lesions, Conc. Mean","[2]; 0.0067% gel, 3 patients",74.1%
same,Mean percentage decay rates of lesions for each patient,[2]; 0.0067% gel,100.0% and 53.8% and 68.4%
same,"Mean percentage decay rate of lesions, Conc. Mean","[2]; 0.0275% gel, 2 patients",83.5%
same,Mean percentage decay rates of lesions for each patient,[2]; 0.0275% gel,104.0% and 62.9%
same,Reducing lesion size over time vs placebo (analysis of variance),"[2]; Groups C and E (0.0067%, 0.0275%) combined, p<.O1",significantly more effective
same,Untoward events or significant complications,[2]; in vivo,No untoward events or significant complications
same,Burning score,[3]; week 2,3
same,Local pain score,[3]; week 2,2
same,Burning score,[3]; week 3,0
same,Local pain score,[3]; week 3,0
same,Burning score,[3]; week 4,0
same,Local pain score,[3]; week 4,0
same,Burning score,[3]; week 5,0
same,Local pain score,[3]; week 5,0
same,Difference in percent reduction in complete healing time vs placebo,"[3]; […] gel, p<0.05",significant
same,Untoward reactions,"[3]; topical gel […], three times a day",no untoward reactions
same,Total # of blisters at 42 hrs,[4]; [5],7
same,Total # of blisters at 52 hrs,[4]; [5],7
same,Total # of blisters at 65 hrs,[4]; [5],14
same,Avg blister/hr,[4]; [5],0.215 blister/hr
same,Discomfort on Lotion or Gel Application,[4]; 0.0045% lotion or gel,2
same,General Discomfort,[4]; 0.0045% lotion or gel,1
same,Total # of blisters at 52 hrs,[4]; [6],2
same,Total # of blisters at 65 hrs,[4]; [6],10
same,Avg blister/hr,[4]; [6],0.154 blister/hr
same,Total # of blisters at 42 hrs,"[4]; 0.0067% IEP, upper left quadrant, hours post irradiation",2
same,Discomfort on Lotion or Gel Application,[4]; 0.0067% lotion or gel,1
same,General Discomfort,[4]; 0.0067% lotion or gel,1
same,"Treatment effect vs placebo, total rate of blister formation","[4]; active lotion or gel (0.0045% and 0.0067% combined), p<0.05",statistically significant treatment effect
same,Untoward effects,[4]; in vivo,no untoward effects
